According to patent US20050070462A1, “Method for stabilising of nucleic acids” (Intercell AG, priority 2001, published 2005):
Ends that are not written are not given here.

Assays:
[1] = test system: TRP-2181-188-specific immune responses; test: IFN-γ ELISPOT of lymph node cells after footpad injection with TRP-2181-188 (Examples 2 and 3); format: in vivo, Mice C57Bl/6; details: injected with TRP-2181-188 and co-injection of poly-L-arginine 100 μg/mouse; ODN 5 nmol/mouse
[2] = test system: OVA257-264-specific IFN-γ producing T cells; test: IFN-γ ELISPOT of PBMCs at day 7 after injection with OVA257-264 and KLK (Example 6); format: in vivo, Mice C57Bl/6; details: injected with OVA257-264, single adjuvant
[3] = test system: peptide-specific IFN-γ-producing T cells (TRP-2181-188); test: IFN-γ ELISPOT of PBMCs at day 7 after injection with TRP-2181-188 and KLK (Example 7); format: in vivo, Mice C57Bl/6; details: TRP-2181-188 alone or with a single adjuvant
serum DNAses = test: Degradation of DNA-plasmid pSP65 by serum DNAses, agarose gel (Example 8); format: in vitro ADME; details: incubated with serum from naïve mice, 1 h at 37° C., presence of poly-L-arginine 2.4 μg
Description: To investigate the protective effect of pR in preventing the degradation of DNA by DNAses the following in vitro experiment was performed. To show a possible in vivo relevance serum was used as source of DNases.
The DNA-plasmid pSP65 (1.58 μg/2 μl) was incubated with serum (8 μl) from naïve mice in the presence or absence of poly-L-arginine (2.4 μg/2.4 μl) for 1 h at 37° C. Addition of heparin (1.6 U/1.6 μl) for 20 min at RT was used for the dissociation of DNA/pR-complexes allowing DNA to migrate into the gel. […] As control a 100 bp DNA marker (GIBCO BRL) was used.

[4] = test system: TRP-2181-188-specific immune responses; test: IFN-γ ELISPOT of spleen cells at day 40 after injection with TRP-2181-188 (Example 4); format: in vivo, Mice C57Bl/6; details: injected with TRP-2181-188, single adjuvant, compared to TRP-2181-188 alone
[5] = test system: TRP-2181-188-specific immune responses; test: IFN-γ ELISPOT of spleen cells at day 6, 49 and 98 after injection with TRP-2181-188 (Example 5); format: in vivo, Mice C57Bl/6; details: co-injection of TRP-2181-188, pR and ODN, day 6, day 49, day 98 after single injection, compared to TRP-2181-188 with pR or CpG 1668b
[6] = test system: OVA257-264-specific immune responses; test: IFN-γ ELISPOT of popliteal lymph node cells 4 days after footpad injection with OVA257-264 (Example 1); format: in vivo, Mice C57Bl/6; details: injected with OVA257-264 and co-injection of poly-L-arginine 100 μg/mouse; ODN 5 nmol/mouse; day 4
Description: • Mice C57Bl/6 (Harlan/Olac) • Peptide OVA257-264-Peptide (SIINFEKL), a MHC class I (H-2 Kb)-restricted epitope of chicken ovalbumin (Rotzschke et al., 1991), synthesized by standard solid phase F-moc synthesis, HPLC purified and analysed by mass spectroscopy for purity • Dose: 300 μg/mouse • Poly-L-arginine (pR) Poly-L-arginine with an average degree of polymerization of 43 arginine residues; SIGMA chemicals • Dose: 100 μg/mouse • CpG-ODN 1668 thiophosphate substituted ODNs containing CpG-motif: tcc atg acg ttc ctg atg ct, were synthesized by Purimex GmbH, Göttingen. • Dose: 5 nmol/mouse • CpG-ODN 1668 b ODNs containing CpG-motif (not substituted with thiophospate): tcc atg acg ttc ctg atg ct, were synthesized by Purimex GmbH, Göttingen. • Dose: 5 nmol/mouse. Experimental Groups (4 Mice Per Group) • 1. OVA257-264+pR • 2. OVA257-264+CpG-ODN 1668 • 3. OVA257-264+CpG-ODN 1668 b • 4. OVA257-264+CPG-ODN 1668+pR • 5. OVA257-264+CPG-ODN 1668 b+pR. […] This method is a widely used procedure allowing the quantification of antigen-specific T cells. […] Spots representing single IFN-γ producing T cells were counted and the number of background spots was substracted from all samples. The high number of spots detected after the stimulation with Con A (data not shown) indicates a good condition of the used lymphocytes. […]

U-ODN 13b: ODNs containing deoxy-Uridine monophosphate (not substituted with thiophospate): tcc atg acu ttc ctg atg ct (DNA TCCATGACUTTCCTGATGCT; DNA, all phosphodiester, T or U not given here; further chemistry not fully specified)
TRP-2181-188-specific immune response (IFN-γ-producing lymph node cells) [1]: only upon co-injection of poly-L-arginine a strong immune response was induced

KLKLLLLLKLK—COOH (KLKLLLLLKLK-OH) [synthetic peptide containing KLK-motifs separated by a linker of hydrophobic amino acids]
peptide-specific IFN-γ-production (PBMCs) [2]: no peptide-specific IFN-γ-production
peptide-specific IFN-γ-production (PBMCs) [3]: no peptide-specific IFN-γ-production

TRP-2181-188: VYDFFVWL, a MHC class I (H-2 Kb)-restricted epitope of mouse tyrosinase related protein-2 [reference compound]
peptide-specific IFN-γ-production (PBMCs) [3]: no peptide-specific IFN-γ-production

Poly-L-arginine [pR]
degradation of pSP65 DNA by serum DNases (agarose gel band pattern) (serum DNAses): prevented
TRP-2181-188-specific immune response (IFN-γ-producing spleen cells) [4]: enhances TRP-2181-188-specific immune responses

CpG-ODN 1668 b: ODNs containing CpG-motif (not substituted with thiophospate): tcc atg acg ttc ctg atg ct (DNA TCCATGACGTTCCTGATGCT; unmodified DNA)
peptide-specific IFN-g producing cells (spleen) ([5]; listed as CpG 1668 b): potent and long lasting immune stimulatory effect
peptide-specific IFN-g producing cells (spleen) ([5]; listed as CpG 1668b): significantly higher numbers of peptide-specific IFN-g producing cells
OVA257-264-specific immune response (IFN-γ-producing cells/1×10^6 lymph node cells) [6]: only upon co-injection of poly-L-arginine a high immune response was induced
